Measured values reported in PubChem BioAssay AID1919003 (Molecular Pharmacology Branch, DTP, NCI, 2023).

Tested on: 786-0 complex spheroids with HUVEC/MSC, growth % test/control
Assay: Anticancer human tumor 786-0 cell line growth inhibition [AhR];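 note: compound exposure lasted seven days before the read-out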
Conditions: for IC50: curve of first compound; for viability, T/C: stronger effect = lower value
Procedure, shortened: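 Complex tumor spheroids co-cultured with HUVEC and human MSC stroma; AhR antagonists tested in combination with standard-of-care and investigational agents. Top concentration at or near clinical Cmax (else 10 microM), half-log dilutions; growth expressed as percent test/control.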

Work on CC1(C)CCC(CN2CCN(c3ccc(C(=O)NS(=O)(=O)c4ccc(NCC5CCOCC5)c([N+](=O)[O-])c4)c(Oc4cnc5[nH]ccc5c4)c3)CC2)=C(c2ccc(Cl)cc2)C1 + Cc1ccccc1N=Nc1ccc(NC(=O)c2ccnn2C)c(C)c1 yielded an IC50 (second compound 0.1 µM) of over 10 µM, an IC50 (second compound 0.316 µM) of over 10 µM and an IC50 (second compound 1 µM) of over 10 µM. The IC50 (second compound 3.16 µM) was over 10 µM, the IC50 (second compound 10 µM) was over 10 µM and the viability, T/C (second compound 0.1 µM, first compound 0.0316 µM) was 97.2%. The viability, T/C (second compound 0.1 µM, first compound 0.1 µM) was 103%, the viability, T/C (second compound 0.1 µM, first compound 0.316 µM) was 95.2% and the viability, T/C (second compound 0.1 µM, first compound 1 µM) was 109%. It also gave a viability, T/C (second compound 0.1 µM, first compound 3.16 µM) of 89.5%, a viability, T/C (second compound 0.1 µM, first compound 10 µM) of 83.8% and a viability, T/C (second compound 0.316 µM, first compound 0.0316 µM) of 109%. For the same compound, the viability, T/C (second compound 0.316 µM, first compound 0.1 µM) was 99%, the viability, T/C (second compound 0.316 µM, first compound 0.316 µM) was 102% and the viability, T/C (second compound 0.316 µM, first compound 1 µM) was 106%. For the same compound, the viability, T/C (second compound 0.316 µM, first compound 3.16 µM) was 97.8%, the viability, T/C (second compound 0.316 µM, first compound 10 µM) was 77.9% and the viability, T/C (second compound 1 µM, first compound 0.0316 µM) was 97.5%. It also gave a viability, T/C (second compound 1 µM, first compound 0.1 µM) of 95.1%, a viability, T/C (second compound 1 µM, first compound 0.316 µM) of 96.7% and a viability, T/C (second compound 1 µM, first compound 1 µM) of 99.4%. The viability, T/C (second compound 1 µM, first compound 3.16 µM) was 91.8%, the viability, T/C (second compound 1 µM, first compound 10 µM) was 80% and the viability, T/C (second compound 3.16 µM, first compound 0.0316 µM) was 95.6%. For the same compound, the viability, T/C (second compound 3.16 µM, first compound 0.1 µM) was 96.9%, the viability, T/C (second compound 3.16 µM, first compound 0.316 µM) was 99.2% and the viability, T/C (second compound 3.16 µM, first compound 1 µM) was 90.4%. It also gave a viability, T/C (second compound 3.16 µM, first compound 3.16 µM) of 77.1%, a viability, T/C (second compound 3.16 µM, first compound 10 µM) of 82.9% and a viability, T/C (second compound 10 µM, first compound 0.0316 µM) of 94.6%. The viability, T/C (second compound 10 µM, first compound 0.1 µM) was 96.3%, the viability, T/C (second compound 10 µM, first compound 0.316 µM) was 88.3% and the viability, T/C (second compound 10 µM, first compound 1 µM) was 87.8%. The viability, T/C (second compound 10 µM, first compound 3.16 µM) was 75.7% and the viability, T/C (second compound 10 µM, first compound 10 µM) was 65.5%.
